From patent publication US7094909B2, “HIV protease inhibitors, compositions containing the same, their pharmaceutical uses and materials for their synthesis” (priority 2001, dated 2006)
Like-named read-outs stand apart in the source and are kept apart here.

Experiments:
[1] = tested on: HIV-1 (HIV-1 RF, HIV-1 NL4-3) in CEM-SS / MT-2 cells; assay: Cytopathic effect (CPE) inhibition assay (XTT/MTT dye reduction); format: cell-based
Method: T-cell lines, CEM-SS, and MT-2, and viruses HIV-1 RF and HIV-1 NL4-3 (pNL4-3) were obtained from the National Institutes of Health (AIDS Research and Reference Reagent Program, Bethesda, Md.).
Cytopathic Effect (CPE) Inhibition Assays
The ability of compounds to protect cells against HIV infection was measured by the […] dye reduction method, essentially as described (See Pauwels, R. Balzarini, J. Baba, M. Snoeck, R. Schols, D. Herdewijn, P. Desmyter, J. and De Clercq, E. 1988, “Rapid and automated tetrazolium-based colorimetric assay for the detection of anti-HIV compounds,”. J Virol. Methods., 20: 309–321 and Weislow, O. S. Kiser, R. Fine, D. L. Bader, J. Shoemaker, R. H. and Boyd, M. R. 1989. “New soluble-formazan assay for HIV-1 cytopathic effects: application to high-flux screening of synthetic and natural products for AIDS-antiviral activity”. J. Natl. Cancer Inst. 81:577–586). Subject cells were infected with test virus at an moi of 0.025 to 0.819 or mock infected with medium only and added at 2×10^4 cells per well into 96 well plates containing half-log dilutions of test compounds. Six days later, 50 μl of XTT (1 mg/ml XTT tetrazolium, 0.02 nM phenazine methosulfate) was added to the wells and the plate was reincubated for four hours. Viability, as determined by the amount of XTT formazan produced, was quantified spectrophotometrically by absorbance at 450 nm. Data from CPE assays were expressed as the percent of formazan produced in compound-treated cells compared to formazan produced in wells of uninfected, compound-free cells. The fifty percent effective concentration (EC50) was calculated as the concentration of compound that effected an increase in the percentage of formazan production in infected, compound-treated cells to 50% of that produced by uninfected, compound-free cells. The 50% cytotoxicity concentration (CC50) was calculated as the concentration of compound that decreased the percentage of formazan produced in uninfected, compound-treated cells to 50% of that produced in uninfected, compound-free cells. The therapeutic index was calculated by dividing the cytotoxicity (CC50) by the antiviral activity (EC50).

[2] = target: T1, HIV-1 protease (Q7S mutant form) (Human immunodeficiency virus type 1 group M subtype B, UniProt P04585, Q495S); assay: HIV-1 Protease RET assay; format: biochemical
T1 construct: made in house
Method: Ki's for the inhibitors of HIV-1 protease were determined using a resonance energy transfer (RET) assay. […] This enzyme is first partially purified as inclusion bodies from cell lysate. It is then solublized in 8M urea and passed through a Q-Sepharose column (Pharmacia) for further purification. To refold this protein, samples containing Q7S is dialyzed into 50 mM sodium phosphate pH 7.0, 50 mM NaCl, 10 mM DTT, and 10% glycerol.
The commercially available peptide substrate (Molecular Probes Cat. # H-2930) RE(EDANS)SQNYPIVQK(DABCYL)R is used to assess activity and Ki's. This peptide is cleaved quantitatively by HIV-1 Pr at the Tyr-Pro bond. The EDANS fluorophore absorbs at 340 nm and emits at 490 nm. The reaction is carried out in a 96 well plate in a total volume of 100 µL and is run for 12 minutes at 37 C under steady-state conditions with 5 µM substrate and 2 nM active dimer enzyme concentration. The literature value Km for this substrate and enzyme is 103+/−8 µM (See Matayoshi, et al., “Novel Fluorogenic Substrates for Assaying Retroviral Proteases by Resonance Energy Transfer,” Science 247, 954 (1990)). The buffer for this reaction is 0.1M sodium acetate pH 4.8, 1M NaCl, 1 mM EDTA, 5 mM dithiothreitol, 10% dimethyl sulfoxide and 1 mg/ml bovine serum albumin. Inhibition curves are fit using the Morrison tight binding equation.

[3] = Human immunodeficiency virus 1, NL43, unit inferred, read-out: EC50
[4] = Ave. Ki (nM), RET assay, Q7S enzyme, Morrison tight binding fit
[5] = Human immunodeficiency virus 1, NL43, read-out: Ave CPE EC50

Row | SMILES | EC50 [1, 3] [µM] | Ki ([2]; Ki, unit inferred) [nM] | other results
1 | Cc1ccccc1CNC(=O)[C@@H]1C(C(=O)[C@@H](O)[C@H](Cc2ccccc2)NC(=O)c2cccc(O)c2C)[C@@H]2CC[C@@H]1C2 (stereo partly shown) | ≥ 10 | – | –
2 | Cc1ccccc1CNC(=O)[C@H]1C(C(=O)[C@@H](O)[C@H](Cc2ccccc2)NC(=O)c2cccc(O)c2C)[C@@H]2CC[C@@H]1C2 (stereo partly shown) | ≥ 10 | – | –
3 | Cc1cccc(C)c1OCC(=O)N[C@@H](Cc1ccccc1)[C@H](O)C(=O)N1CSC(C)(C)[C@H]1C(=O)NCc1ccccc1C(F)(F)F | 1.95 | 1.4 | –
4 | CC1(C)SCN(C(=O)[C@@H](O)[C@H](Cc2ccccc2)NC(=O)c2cccc3c2CCN3)[C@@H]1C(=O)N[C@@H]1CCOc2ccccc21 | 1.96 | 7.4 | –
5 | Cc1ccccc1CNC(=O)[C@H]1N(C(=O)[C@@H](O)[C@H](Cc2ccccc2)NC(=O)C(F)(F)F)CSC1(C)C | 2.2 | 17.1 | –
6 | Cc1ccccc1CNC(=O)[C@H]1N(C(=O)[C@@H](O)[C@H](Cc2ccccc2)NC(=O)OC2CC3CCC2C3)CSC1(C)C (stereo partly shown) | 2.88 | 9.4 | –
7 | Cc1ccccc1CNC(=O)[C@@H]1CC(F)(F)CN1C(=O)[C@@H](O)[C@H](Cc1ccccc1)NC(=O)c1c(C)noc1C [Example C43, 3,5-Dimethyl-isoxazole-4-carboxylic acid {1-benzyl-3-[4,4-difluoro-2-(2-methyl-benzylcarbamoyl)-pyrrolidin-1-yl]-2-hydroxy-3-oxo-propyl}-amide] | – | – | Ki [2, 4]: 21 nM
8 | C#CCOC(=O)N[C@@H](Cc1ccccc1)[C@H](O)C(=O)N1CC(F)(F)C[C@H]1C(=O)NCc1ccccc1C [Example C44, {1-Benzyl-3-[4,4-difluoro-2-(2-methyl-benzylcarbamoyl)-pyrrolidin-1-yl]-2-hydroxy-3-oxo-propyl}-carbamic acid prop-2-ynyl ester] | – | – | Ki [2, 4]: 14.8 nM
9 | Cc1ccccc1CNC(=O)[C@@H]1C[C@@H]2CCCC[C@@H]2CN1C(=O)[C@@H](O)[C@H](Cc1ccccc1)NC(=O)c1cccc(O)c1C [Example C49, (3S,4aS,8aS)-2-((2S,3S)-2-Hydroxy-3-{[1-(3-hydroxy-2-methyl-phenyl)-methanoyl]-amino}-4-phenyl-butanoyl)-decahydro-isoquinoline-3-carboxylic acid 2-methyl-benzylamide] | – | – | Ki [2, 4]: 150 nM
10 | C=CCNC(=O)C1N(C(=O)[C@@H](O)[C@H](Cc2cccc(F)c2)NC(=O)c2cccc(O)c2C)CC(F)(F)C1(C)C (stereo partly drawn) [Example D2, (R)-3-((2S,3R)-4,4-Difluoro-1-[4(3-fluoro-phenyl)-2-hydroxy-3-(3-hydroxy-2-methyl-benzoylamino)-butyryl])-3,3-dimethyl-pyrrolidine-2-carboxylic acid allyiamide] | – | – | EC50 [1, 5]: 0.016 µM
11 | Cc1c(O)cccc1C(=O)N[C@@H](Cc1cccc(F)c1)[C@H](O)C(=O)N1CC(F)(F)C(C)(C)[C@H]1C(=O)NCC(C)C [Example D3, (S)-4,4-Difluoro-1-[(2S,3S)-4-(3-fluoro-phenyl)-2-hydroxy-3-(3-hydroxy-2-methyl-benzoylamino)-butyryl]-3,3-dimethyl-pyrrolidine-2-carboxylic acid is butyl-amide] | – | – | EC50 [1, 5]: 0.013 µM
12 | Cc1cc(O)c(C)c(C(=O)N[C@@H](Cc2ccccc2)[C@H](O)C(=O)N2CC(F)(F)C(C)(C)[C@H]2C(=O)NCC(F)(F)F)c1 [Example D6, (S)-4,4-Difluoro-1-[(2S,3S)-2-hydroxy-3-(3-hydroxy-2,5-dimethyl-benzoylamino)-4-phenyl-butyryl]-3,3-dimethyl-pyrrolidine-2-carboxylic acid (2,2,2-trifluoro-ethyl)-amide] | – | – | EC50 [1, 5]: 0.018 µM
13 | CC1(C)SCN(C(=O)[C@@H](O)[C@H](Cc2ccccc2)NC(=O)NCc2ccccc2Cl)C1C(=O)NCc1ccccc1Cl (stereo partly shown) [drawing 953] | – | 74 | –
14 | Cc1ccccc1CNC(=O)[C@H]1N(C(=O)[C@@H](O)[C@H](Cc2ccccc2)NC(=O)CCNC(=O)OC(C)(C)C)CSC1(C)C [drawing 1035] | – | 94 | –
15 | Cc1ccccc1CNC(=O)[C@H]1N(C(=O)[C@@H](O)[C@H](Cc2ccccc2)NC(=O)CCNC(=O)OC(C)(C)C)CSC1(C)C [drawing 1038] | – | 48 | –
